Activity calls are given as the source filed them. The calls are words filed in the database; no cut-off is given here.
Experiments:
A549/TR [1] = assay: Induction of apoptosis in human A549/Taxol cells at 0.1 uM incubated for 48 hrs by Annexin V-FITC/PI staining based flow cytometry analysis; format: functional
A549 [2] = assay: Antiproliferative activity against human A549 cells incubated for 72 hrs; format: functional, cell-based; settings: A549, 72 h
A549/TR [3] = assay: Induction of cell cycle arrest in human A549/Taxol cells assessed as accumulation of cells at G2/M phase at 0.1 uM incubated for 24 hrs by PI staining based flow cytometry analysis (reference value: 17.02%); format: functional
A549/TR [4] = assay: Induction of cell cycle arrest in human A549/Taxol cells assessed as accumulation of cells at S phase at 0.1 uM incubated for 24 hrs by PI staining based flow cytometry analysis (reference value: 2.85%); format: functional
A549/TR [5] = assay: Induction of cell cycle arrest in human A549/Taxol cells assessed as accumulation of cells at G0/G1 phase at 0.1 uM incubated for 24 hrs by PI staining based flow cytometry analysis (reference value: 77.86%); format: functional
A549 [6] = assay: Antitumor activity against human A549 cells xenografted in nude mouse assessed as decrease in tumor volume at 10 mg/kg, ip administered once every 2 days for 23 days by Vernier caliper method; format: functional, organism-based; settings: time 23.0 day
A549/TR [7] = assay: Induction of cell cycle arrest in human A549/Taxol cells assessed as accumulation of cells at S phase at 1 uM incubated for 24 hrs by PI staining based flow cytometry analysis (reference value: 2.85%); format: functional
A549/TR [8] = assay: Induction of cell cycle arrest in human A549/Taxol cells assessed as accumulation of cells at G2/M phase at 1 uM incubated for 24 hrs by PI staining based flow cytometry analysis (reference value: 17.02%); format: functional
[9] = Toxicity in nude mouse xenografted with human A549 cells assessed as body weight loss at 10 mg/kg, ip administered once every 2 days for 23 days and measured every 3 days; format: organism-based; settings: in vivo, 552 h, time 23 day
A549/TR [10] = assay: Induction of apoptosis in human A549/Taxol cells at 1 uM incubated for 48 hrs by Annexin V-FITC/PI staining based flow cytometry analysis; format: functional
A549/TR [11] = assay: Induction of cell cycle arrest in human A549/Taxol cells assessed as accumulation of cells at G0/G1 phase at 1 uM incubated for 24 hrs by PI staining based flow cytometry analysis (reference value: 77.86%); format: functional
A549 [12] = assay: Antitumor activity against human A549 cells xenografted in nude mouse assessed as decrease in tumor weight at 10 mg/kg, ip administered once every 2 days for 23 days by Vernier caliper method; format: functional, organism-based; settings: time 23.0 day
[13] = Toxicity in nude mouse xenografted with human A549/Taxol cells assessed as body weight loss at 10 mg/kg, ip administered once every 2 days for 23 days and measured every 3 days; format: organism-based, A549/TR; settings: in vivo, 552 h, time 23 day
A549/TR [14] = assay: Inhibition of cell growth in human A549/Taxol cells incubated for 72 hrs by SRB method; format: functional, cell-based
A549 [15] = assay: Induction of cell cycle arrest in human A549 cells assessed as accumulation of cells at G0/G1 phase at 0.02 uM incubated for 24 hrs by PI staining based flow cytometry analysis (reference value: 66.75%); format: functional
A549 [16] = assay: Induction of cell cycle arrest in human A549 cells assessed as accumulation of cells at S phase at 0.02 uM incubated for 24 hrs by PI staining based flow cytometry analysis (reference value: 2.85%); format: functional
A549 [17] = assay: Antitumor activity against human A549 cells xenografted in nude mouse assessed as tumor growth inhibition at 10 mg/kg, ip administered once every 2 days for 23 days by Vernier caliper method; format: functional; settings: A549, 552 h, time 23 day, read-out: TGI
A549 [18] = assay: Induction of cell cycle arrest in human A549 cells assessed as accumulation of cells at G2/M phase at 0.02 uM incubated for 24 hrs by PI staining based flow cytometry analysis (reference value: 31.86%); format: functional
A549/TR [19] = assay: Antitumor activity against human A549/Taxol cells xenografted in nude mouse assessed as tumor growth inhibition at 10 mg/kg, ip administered once every 2 days for 23 days by Vernier caliper method; format: functional; settings: 552 h, time 23 day, read-out: TGI

COc1ccc(/C=C\c2cc(OC)c(OC)c(OC)c2)cc1O [COMBRETASTATIN A4]
Activity (A549/TR [1]): 26.9% | IC50 (A549 [2]): 5 nM | Activity (A549/TR [3]): 64.76% | Activity (A549/TR [4]): 17.89% | Activity (A549/TR [5]): 21.17%

CC(=O)O[C@H]1C(=O)[C@@]2(C)[C@H]([C@H](OC(=O)c3ccccc3)[C@]3(O)C[C@H](OC(=O)[C@H](O)[C@@H](NC(=O)c4ccccc4)c4ccccc4)C(C)=C1C3(C)C)[C@]1(OC(C)=O)CO[C@@H]1C[C@@H]2O [PACLITAXEL]
Activity (A549 [6]): Active | Activity (A549/TR [7]): 5.77% | Activity (A549/TR [8]): 74.23% | Activity [9]: Non-Toxic | Activity (A549/TR [10]): 22.7% | Activity (A549/TR [11]): 20.43% | Activity (A549 [12]): Active | Activity [13]: Non-Toxic | IC50 (A549/TR [14]): 1030 nM | Activity (A549 [15]): 10.8% | Activity (A549 [16]): 6.1% | inhibition in vivo at 10 mg/kg (A549 [17]): 28.5% | Activity (A549 [18]): 83.1% | inhibition in vivo at 10 mg/kg (A549/TR [19]): 52%
